Data on eleven compounds can be found in patent US10723699B2 (Hyundai Pharm Co., Ltd., priority 2015, dated 2020).

For the experiment, the target named is T1, G protein-coupled receptor 119 (GPR-119) (Mesocricetus auratus, UniProt A0A1U8CD06).
T1 construct: hamster-derived β-cells containing G protein-coupled receptor 119 (GPR-119), HIT-T15 cells; host or cells: HIT-T15 (hamster pancreatic β-cells)
T1 sequence (A0A1U8CD06 1-334): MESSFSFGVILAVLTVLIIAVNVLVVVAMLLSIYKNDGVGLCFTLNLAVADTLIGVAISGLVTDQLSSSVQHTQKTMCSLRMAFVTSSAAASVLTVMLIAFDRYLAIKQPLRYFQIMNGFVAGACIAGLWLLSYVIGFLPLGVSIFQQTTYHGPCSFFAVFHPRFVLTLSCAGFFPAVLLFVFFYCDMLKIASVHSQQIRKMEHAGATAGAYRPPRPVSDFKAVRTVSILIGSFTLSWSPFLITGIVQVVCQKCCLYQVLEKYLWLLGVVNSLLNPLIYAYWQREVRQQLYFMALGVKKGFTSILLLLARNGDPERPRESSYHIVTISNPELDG
In words: cAMP activity in HIT-T15 cells (cAMP dynamic kit, FRET). The format is cell-based, hamster. Summed up: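 Hamster HIT-T15 cells (60,000/well) were treated next day with compound at six concentrations, 0.0032–10 μM, for 1 h at 37° C. Cells were then lysed and cAMP measured by competitive HTRF immunoassay (D2-cAMP, cryptate anti-cAMP). Activity was derived as the change in FRET signal relative to DMSO.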

Where [1] appears, read: 1 hour at 37° C., six concentrations 0.0032 to 10 μM, read-out: EC50.

As usually defined, the EC50 is the concentration needed to bring the measured effect to its halfway point.

Like-named read-outs stand apart in the source and are kept apart here.

For `CCc1cnc(N2CCC(COc3ccc(C4=CCC(C(=O)N5CCOCC5)CC4)cc3F)CC2)nc1` (stereo not shown) [Example 299, (4-(4-((1-(5-ethylpyrimidin-2-yl)piperidin-4-yl)methoxy)-3-fluorophenyl)cyclohex-3-enyl)(morpholino)methanone], the EC50 reads like this: under setting [1], 12 nM; (Table 2, read-out: EC50 value) at most 50 nM.

For `CC(C)c1noc(N2CCC(COc3ccc(C4=CCC(C(=O)N5CCSCC5)CC4)c(F)c3)CC2)n1` (stereo not shown) [Example 449, (4-(2-fluoro-4-((1-(3-isopropyl-1,2,4-oxadiazol-5-yl)piperidin-4-yl)methoxy)phenyl)cyclohex-3-enyl)(thiomorpholino)methanone], the concentration giving a half-maximal response (EC50) reads like this: under setting [1], 33 nM; (Table 2, read-out: EC50 value) at most 50 nM.

`CC1(OC(=O)N2CCC(COc3ccc(C4=CCC(C(=O)N5CCCC5)CC4)cc3F)CC2)CC1` (stereo not shown) [Example 408, 1-methylcyclopropyl 4-((2-fluoro-4-(4-(pyrrolidine-1-carbonyl)cyclohex-1-enyl)phenoxy)methyl)piperidine-1-carboxylate]: the concentration giving a half-maximal response (EC50) runs as follows: under setting [1], 25 nM; (Table 2, read-out: EC50 value) at most 50 nM.

In the case of `CCc1cnc(N2CCC(COc3ccc(C4=CCC(C(=O)N5CCCCC5)CC4)cc3F)CC2)nc1` (stereo not shown) [Example 292, (4-(4-((1-(5-ethylpyrimidin-2-yl)piperidin-4-yl)methoxy)-3-fluorophenyl)cyclohex-3-enyl)(piperidin-1-yl)methanone], the EC50 under setting [1] was determined as 12 nM and the EC50 (Table 2, read-out: EC50 value) was at most 50 nM.

For `CC(C)c1noc(N2CCC(COc3ccc(C4=CCC(C(=O)N5CCN(C6CC6)CC5)CC4)cc3F)CC2)n1` (stereo not shown) [Example 369, (4-cyclopropylpiperazin-1-yl)(4-(3-fluoro-4-((1-(3-isopropyl-1,2,4-oxadiazol-5-yl)piperidin-4-yl)methoxy)phenyl)cyclohex-3-enyl)methanone], the EC50 under setting [1] came to 9 nM.

Take `O=C(NCCO)C1CC=C(c2ccc(OCC3CCN(c4ccccn4)CC3)cc2)CC1` (stereo not shown) [Example 358, N-(2-hydroxyethyl)-4-(4-((1-(pyridin-2-yl)piperidin-4-yl)methoxy)phenyl)cyclohex-3-enecarboxamide]: the EC50 under setting [1] was found to be 190 nM.

`CCc1cnc(N2CCC(COc3ccc(C4=CCC(C(=O)N5CCCCC5)CC4)cc3C#N)CC2)nc1` (stereo not shown) [Example 385, 2-((1-(5-ethylpyrimidin-2-yl)piperidin-4-yl)methoxy)-5-(4-(piperidine-1-carbonyl)cyclohex-1-enyl)benzonitrile]: the EC50 runs as follows: under setting [1], 45 nM; (Table 2, read-out: EC50 value) at most 50 nM.

As for `CCc1cnc(N2CCC(COc3ccc(C4=CCC(C(=O)N5CCN(C(=O)NC(C)C)CC5)CC4)cc3)CC2)nc1` (stereo not shown) [Example 413, 4-(4-(4-((1-(5-ethylpyrimidin-2-yl)piperidin-4-yl)methoxy)phenyl)cyclohex-3-enecarbonyl)-N-isopropylpiperazine-1-carboxamide], the EC50 was 25 nM under setting [1] and at most 50 nM (Table 2, read-out: EC50 value).

In the case of `O=C(Oc1ccc([N+](=O)[O-])cc1)N1CCC(COc2ccc(C3=CCC(C(=O)N4CCCC4)CC3)cc2F)CC1` (stereo not shown) [Example 404, 4-nitrophenyl 4-((2-fluoro-4-(4-(pyrrolidine-1-carbonyl)cyclohex-1-enyl)phenoxy)methyl)piperidine-1-carboxylate], the EC50 under setting [1] was 55 nM.

Turning to `CCc1cnc(N2CCC(COc3ccc(C4=CCC(C(=O)N5CCC[C@@H]5CO)CC4)c(F)c3)CC2)nc1` (stereo partly drawn) [Example 427, (4-(4-((1-(5-ethylpyrimidin-2-yl)piperidin-4-yl)methoxy)-2-fluorophenyl)cyclohex-3-enyl)((R)-2-(hydroxymethyl)pyrrolidin-1-yl)methanone], the concentration for a half-maximal effect (EC50) is, setting by setting: under setting [1], 32 nM; (Table 2, read-out: EC50 value) at most 50 nM.

With `CCc1cnc(N2CCC(COc3ccc(C4=CCC(C(=O)N5CCC(O)CC5)CC4)c(F)c3)CC2)nc1` (stereo not shown) [Example 431, (4-(4-((1-(5-ethylpyrimidin-2-yl)piperidin-4-yl)methoxy)-2-fluorophenyl)cyclohex-3-enyl)(4-hydroxypiperidin-1-yl)methanone], the EC50 by setting is: under setting [1], 27 nM; (Table 2, read-out: EC50 value) at most 50 nM.
